Patent US12084579B2, “Cyclophane-sustained high performance porphyrins” (Northwestern University, priority 2020, dated 2024)

Legend:
[1] = Displacement (competitive) fluorescence titration, XCage^8+ displacing ExBox^4+; assay type: binding; settings: toward Porp-2H and Porp-Zn; water
Method: The changes in optical properties upon porphyrin encapsulation enable a facile study of the binding events. Fluorescence titrations of Porp-2H and Porp-Zn with ExBox^4+ yielded directly their binding constants in water. Since the binding affinities for XCage^8+ with Porp-2H and Porp-Zn are too high to be determined directly, competitive titrations were performed by displacing ExBox^4+ with XCage^8+ from the complex Porp-2H(Zn)⊂ExBox^4+. The binding affinities (Table 1) between ExBox^4+ and the two porphyrins are in the order of 10^7 M^−1. […] The samples were equilibrated for 6 h prior to the fluorescence titration studies. […]
Displacement fluorescence titration experiments: The displacement of porphyrins from Porp-2H⊂ExBox^4+ or Porp-Zn⊂ExBox^4+ by XCage^8+ to form Porp-2H⊂XCage^8+ or Porp-Zn⊂XCage^8+ regenerates the fluorescence emission of porphyrin, and the turn-on fluorescence was monitored as the signals to track the formation of the porphyrin inclusion complexes with XCage^8+. […] The samples were equilibrated at room temperature for 6 h, and the fluorescence intensity of each sample was recorded. The average fluorescence intensity of the three sets samples was plotted against the concentration of XCage^8+ to generate the binding isotherm, which was fitted by a displacement binding model^S15 to calculate the binding constant Ka using Origin Lab 8.6 software^S16.

[2] = Isothermal titration calorimetry, single injection, XCage^8+; assay type: binding; settings: toward Porp-2H and Porp-Zn
Method: Since the high binding affinity and aggregation of the two porphyrins prevent the accurate measurement of binding constants by isothermal titration calorimetry (ITC), a single injection experiment was performed in order to determine the binding enthalpy. The Gibbs free energy of the receptor-substrate complexation was estimated directedly from the corresponding fluorescent titrations, providing a value for TAS. Compared with ExBox^4+, the binding enthalpies of XCage^8+ are in the range of 7-8 kcal mol^−1 larger, a major contributing factor to the enhanced affinity.
Isothermal titration calorimetry: Isothermal titration was performed by TA Nano Isothermal Titration Calorimeter at 25° C. A Hastelloy cell was used with an active cell volume 190 μL. The stirring speed was set at 150 rpm. The solutions of receptors and substrates were prepared in Milli-Q water and allowed to equilibrate overnight if necessary. The aggregation of porphyrins and their high affinity binding prevented the accurate determination of binding constants, we thus only evaluated the binding enthalpy by single injection method.^S17

c1cc2ccc1C[n+]1ccc(cc1)-c1cc3cc(c1)-c1cc4cc(c1)-c1cc[n+](cc1)Cc1ccc(cc1)C[n+]1ccc(cc1)-c1cc(cc(c1)-c1cc(cc(c1)-c1cc[n+](cc1)Cc1ccc(cc1)C[n+]1ccc-3cc1)-c1cc[n+](cc1)C2)-c1cc[n+](cc1)Cc1ccc(cc1)C[n+]1ccc-4cc1 [XCage^8+]
enhancement in the binding affinities compared with ExBox^4+ [1]: ~1000 fold | binding enthalpies larger compared with ExBox^4+ [2]: 7 to 8 kcal/mol
